Laboratory results published in patent publication US20150352114A1, “MITOTIC KINESIN Eg5 INHIBITING ANTICANCER AGENTS” (THE CLEVELAND CLINIC FOUNDATION, priority 2014, published 2015).

Key:
[1] = system: matched GSCs and NSTCs; experiment: Long-term viability assay, CellTiter-Glo, 5 days; format: cell-based, human; conditions: 3 nM; two matched GSCs and NSTCs
Experimental: (§1) The half maximal effective concentration of ispinesib for acutely dissociated and MACS sorted matched GSCs and NSTCs was determined by plating, in triplicate, 1,000 cells per well of a 96 well plate pre-coated with GelTrex in growth-factor free Neuralbasal media. The next day, cells were exposed to 2-fold increasing concentrations of ispinesib spanning from 0 to 32 nM. Viability was measured at 72 hours using CellTiter-Glo ATP-based assay (Promega, Madison, Wis.) read on a luminometer (Perkin-Elmer, Waltham, Mass.). For long-term viability assays, 500 cells per well were plated in triplicate into 96-well plates as above. The next day, cells were exposed to 3 nM ispinesib or vehicle (DMSO) and viability was measured daily for 5 days using CellTiter-Glo. Day 0 reading were taken immediately after addition of drug or vehicle. SubG1 for GSCs and NSTCs was determined by flow cytometry for propidium iodide and gated as the events below the 2N G1 peak of the resulting histogram. Analysis was done following treatment of 100,000 cells with vehicle or 3 nM ispinesib. Cells were fixed at Day 0 through Day 4 in 100% cold ethanol and simultaneously processed for flow analysis with 20,000 events analyzed per condition.

[2] = system: 08-387 GSCs; experiment: Transwell in vitro invasion assay; format: cell-based, human
Experimental: 08-387 GSCs enriched in G1 (8 hours post final thymidine release) were pre-exposed to vehicle or ispinesib (200 to 0 nM at a two-fold dilution) for one hour prior to being seeded onto Matrigel coated FluoroBlok Cell Culture Inserts at 125,000 cells per insert (±vehicle or ispinesib, plated in triplicate) with Neurobasal media supplemented with 10% FBS in the lower reservoir (BD Falcon, Franklin Lakes, N.J.). After 8 hours, membranes were processed for analysis with nuclei stained with DAPI. Nuclei on the lower surface of the membrane within the central field were scored using the 20× objective on a Leica DMIRB inverted microscopes.

[3] = system: GSCs; experiment: Limiting dilution assay and sphere formation (self-renewal); format: cell-based, human; conditions: pretreatment 18 hours with 3 nM; scored ten days later
Experimental: GSCs were isolated from subcutaneous flank xenografts of patient-derived specimens by magnetic sorting as described above and allowed to recover overnight. The next day cells were exposed to vehicle or 3 nM ispinesib for 18 hours. Cells were then washed and triturated into a single cell suspension. Cell sorting was performed using a FACS Aria II Cell Sorter (BD Biosciences, Franklin Lakes, N.J., USA) to plate the cells into 96 well plates at a final cell number per well of 1 (38 wells/plate), 5 (24 wells/plate), 10, 20, or 50 (all at 12 wells/plate). Tumorsphere formation was evaluated 10 days after sorting and wells were scored positive or negative for the presence of at least one tumorsphere. The estimated stem cell frequency was calculated using extreme limiting dilution analysis. Only live cells were selected for using Live/Dead dye blue (Life Technologies).

[4] = system: glioblastoma stem cells (GSCs); experiment: Dose response cell viability, CellTiter-Glo ATP-based assay, GSCs; conditions: Homo sapiens, 0 to 32 nM, 72 hours
From the text: (§2) Human tissues were acquired from primary human brain tumor patient specimens in accordance with appropriate approved Institutional Review Board protocols. Tumor grade and available cytogenetic information for each specimen has been previously described. Tumor specimens were maintained through subcutaneous xenografts in the flanks of athymic Nu/Nu or NSG mice. Tumors were dissociated using a papain dissociation system (Worthington Biochemical, Lakewood, N.J.). […]
as §1, with “The next day, cells were exposed to 2-fold increasing concentrations of ispinesib spanning from 0 to 32 nM.” left out, “For long-term viability assays, 500 cells per well were plated in triplicate into 96-well plates as above.” left out, “Analysis was done following treatment of 100,000 cells with vehicle or 3 nM ispinesib.” left out

[5] = system: orthotopic tumor from luciferase-expressing 3691 GSCs; experiment: Orthotopic GBM xenograft model with systemic ispinesib; format: in vivo, mice
Experimental: The tumor was isolated 5 hours later and processed for immunofluorescence to βtubulin with the nuclei counterstained with DAPI. […] 7 days later when positive luminescence signal indicated tumor burden, mice were randomized into one of two treatment groups; vehicle only (DMSO; n=10) or 10 mg/kg ispinesib (n=10) administered on a q4d×6 dosing schedule. Arrows indicate day of vehicle or drug administration.
Subcutaneous or intracranial tumors were fixed overnight in 4% PFA at 4° C., washed in PBS, cryoprotected in 30% sucrose, then embedded in optimal cutting temperature compound (OCT) and stored at −80° C. […] Sections were cut using a LeicaCMXXXX cryostat at 10 μm directly onto slides (Leica Microsystems Inc., Buffalo Grove, Ill.). Sections were postfixed for 15 minutes at room temperature in 4% PFA followed by PBS washes then incubated in blocking solution (5% goat serum, 0.1% Triton X-100 in PBS). Primary antibodies were diluted in blocking solution and used as follows overnight at 4° C.: Sox2 (rabbit, 1:500, Abcam, Cambridge, Mass., USA), atubulin (rat, 1:1000, AbD Serotec, Raleigh, N.C.). Secondary antibodies were Alexa Fluor (1:500, Invitrogen, Grand Island, N.Y., USA) labeled with 488 mixed in blocking solution and incubated for 2 hours at room temperature. DNA was stained using 4′,6-diamidino-2-phenylindole (DAPI, 10 μg/ml, Sigma, St Louis, Mo., USA) diluted in PBS for 5 minutes at room temperature.
To evaluate the efficacy of Eg5 inhibition in a more clinically relevant system, we utilized an orthotopic xenograft model to systemically deliver ispinesib. […] The tumor was sectioned and probed for tubulin to evaluate for the presence of mono-astral spindles, a hallmark of Eg5 inhibition.

[6] = system: pCRMP2 (T514) in interphase GSCs; experiment: CRMP2 phosphorylation immunoblot; format: cell-based, human; conditions: 200 nM; 6-hour time course; GSCs
Experimental: FIGS. 8(A-B) illustrate that Eg5 impacts microtubule growth through the CRMP-tubulin deposition pathway; (A) 08-387 GSCs enriched in interphase were exposed to vehicle (DMSO) or ispinesib (200 nM) and harvested for whole cell lysates every two hours over a 6 hour time course. Resulting lysates were probed for CRMP2 and pCRMP2 (T514); (B) Human brain microvascular endothelial cells (HuBrMVECs) were treated with vehicle (DMSO) or ispinesib (200 nM) and harvested for whole cell lysates every three hours over a 6 hour time course. Resulting lysates were probed for CRMP2 and pCRMP2 (T514); For all immunoblots, βactin served as a loading control. Molecular weight (MW) of resulting bands is given in kilodaltons (kD).
Protein extracts were made using a 50 mM Tris pH 8.0, […] NaCl, 0.5% NP-40 lysis solution. Resulting lysates were ran on 10% SDS-PAGE gels and transferred to Immobilon-FL PVDF (Millipore Corp., Billerica, Mass.). The membranes were blocked with 5% (wt/vol) bovine serum albumin in PBS-Tween-20 (0.2% vol/vol) and probed with primary antibodies against Eg5 (mouse, 1:4000, BD Biosciences, San Jose, Calif.), Olig2 (rabbit, 1:1000, abcam, San Francisco, Calif.), GFAP (DAKO; 1:10,000, Carpinteria, Calif.), CRMP2 (mouse, 1:1000, abgent, San Diego, Calif.), pCRMP2(T514) (rabbit, 1:1000, Cell Signaling, Beverly, Mass.), or β-actin (mouse, 1:8000, Sigma-Aldrich, St. Louis, Mo.) as a loading control. Secondary antibodies (LI-COR) were incubated in TBST+0.02% SDS and visualized with the LI-COR Odyssey near infrared imaging system (Lincoln, NB).

[7] = system: NSTCs; experiment: Dose response cell viability, CellTiter-Glo ATP-based assay, NSTCs; conditions: Homo sapiens, 0 to 32 nM, 72 hours
From the text: as §2
as §1, with “The next day, cells were exposed to 2-fold increasing concentrations of ispinesib spanning from 0 to 32 nM.” left out, “For long-term viability assays, 500 cells per well were plated in triplicate into 96-well plates as above.” left out, “Analysis was done following treatment of 100,000 cells with vehicle or 3 nM ispinesib.” left out

`Cc1ccc(C(=O)N(CCCN)[C@@H](c2nc3cc(Cl)ccc3c(=O)n2Cc2ccccc2)C(C)C)cc1` [ispinesib, N-(3-amino-propyl)-n-[R-1-(3-benzyl-7-choloro-4-oxo-3,4-dihydroquinazolin-2-yl)-2-methyl-propyl]-4-methyl-benzamide methanesulfonate] was tested, and the “cell viability over five-day time course” value [1] was “Both populations demonstrated sensitivity”, the “fewer cells migrated per field compared to vehicle control” value ([2]; 200 nM) was “approximately 6 fold” and the EC50 ([2]; Homo sapiens, 8 h, read-out: EC50, Transwell migration) was 67.2 nM. The Transwell migration ([2]; interphase-enriched cells, 8 hours) was “completely block”, the “stem cell frequency (tumorsphere formation)” value [3] was “significantly compromised” and the EC50 [4] was 1.15 ± 0.35 nM. The median survival ([5]; 10 mg/kg q4d×6 intraperitoneal) was 36 days, the survival versus vehicle ([5]; 10 mg/kg q4d×6 intraperitoneal, p<0.001) was “significant survival advantage” and the “mono-astral spindles in intracranial tumor” value ([5]; single 10 mg/kg dose, tumor harvested 5 hours later) was “numerous cells with mono-astral spindles”. For the same compound, the “phospho-CRMP2 (T514)” value [6] was “significant increase” and the EC50 [7] was 1.79 ± 0.22 nM.
